{"source": "ChEMBL document CHEMBL5226308", "about": "“Amide-Amine Replacement in Indole-2-carboxamides Yields Potent Mycobactericidal Agents with Improved Water Solubility” (ACS Med Chem Lett, 2021)", "key": {"[1]": {"test": "Aqueous solubility of the compound in aqueous buffer at 100 uM incubated for 24 hrs under agitation condition by UV-Vis spectrophotometric analysis", "type": "physicochemical"}, "[2]": {"test": "Effective permeability coefficient of the compound at 500 uM incubated for 18 hrs under agitation condition by PAMPA assay", "type": "ADME", "details": "for Papp at 18 h, 500 µM: PAMPA, read-out: Peff"}, "[3]": {"test_system": "Mycolicibacterium smegmatis", "test": "Disruption of proton motive force in Mycobacterium smegmatis spheroplasts assessed as disruption of proton gradient by measuring acidification of intracellular spaces within spheroplasts at 2XMIC90 measured after 30 mins by BCECF-AM dye based fluorescence analysis", "type": "functional, organism-based"}, "[4]": {"test": "Ratio of MIC90 for antimycobacterial activity against Mycobacterium bovis BCG B16-1 harboring mmpL3 C1932G/F644L mutant to MIC90 for antimycobacterial activity against wild type Mycobacterium bovis BCG ATCC 35734", "type": "functional"}, "[5]": {"test": "Ratio of MIC90 for antimycobacterial activity against Mycobacterium bovis BCG B33-1 harboring mmpL3 C1932G/F644L mutant to MIC90 for antimycobacterial activity against wild type Mycobacterium bovis BCG ATCC 35734", "type": "functional"}, "[6]": {"test": "Ratio of MIC90 for antimycobacterial activity against Mycobacterium bovis BCG B47-3 harboring mmpL3 T1930C/F644L mutant to MIC90 for antimycobacterial activity against wild type Mycobacterium bovis BCG ATCC 35734", "type": "functional"}, "[7]": {"test": "Ratio of MIC90 for antimycobacterial activity against Mycobacterium bovis BCG B47-4 harboring mmpL3 C1932G/F644L mutant to MIC90 for antimycobacterial activity against wild type Mycobacterium bovis BCG ATCC 35734", "type": "functional"}, "[8]": {"test": "Ratio of MIC90 for antimycobacterial activity against Mycobacterium bovis BCG B47-2 harboring mmpL3 G2041A/V681I mutant to MIC90 for antimycobacterial activity against wild type Mycobacterium bovis BCG ATCC 35734", "type": "functional"}, "[9]": {"test": "Ratio of MIC90 for antimycobacterial activity against Mycobacterium bovis BCG B16-2 harboring mmpL3 C1932A/F644L mutant to MIC90 for antimycobacterial activity against wild type Mycobacterium bovis BCG ATCC 35734", "type": "functional"}, "[10]": {"test": "Ratio of MIC90 for antimycobacterial activity against Mycobacterium bovis BCG B33-2 harboring mmpL3 C765G/F255L mutant to MIC90 for antimycobacterial activity against wild type Mycobacterium bovis BCG ATCC 35734", "type": "functional"}, "[11]": {"test": "Ratio of MIC90 for antimycobacterial activity against Mycobacterium bovis BCG B47-1 harboring mmpL3 C1932G/F644L mutant to MIC90 for antimycobacterial activity against wild type Mycobacterium bovis BCG ATCC 35734", "type": "functional"}, "[12]": {"test_system": "Mycobacterium tuberculosis", "test": "Antimycobacterial activity against Mycobacterium tuberculosis H37Rv ATCC 27294 assessed as inhibition of bacterial growth incubated for 7 days by broth dilution method", "type": "functional", "details": "H37Rv ATCC 27294, 168 h, time 7 day"}, "[13]": {"test": "Half life in rat liver microsomes at 200 uM incubated for 5 mins followed by NADPH addition and measured for 45 mins by LC-MS/MS analysis", "type": "ADME, Microsome", "details": "time 50 min"}, "[14]": {"test_system": "Mycobacterium tuberculosis", "test": "Myco-bactericidal activity against Mycobacterium tuberculosis H37Rv ATCC 27294 assessed as inhibition of bacterial colony formation incubated for 7 days by agar plate method", "type": "functional", "details": "H37Rv ATCC 27294, 168 h, time 7 day, read-out: MBC99.9"}, "[15]": {"test": "Cytotoxicity against African green monkey Vero E6 cells assessed as reduction in cell viability incubated for 48 hrs by MTS assay", "type": "toxicity, cell-based, Chlorocebus sabaeus, Vero C1008"}, "[16]": {"test": "Selectivity index, ratio of IC50 for cytotoxicity against African green monkey Vero E6 cells to MIC50 for antimycobacterial activity against Mycobacterium tuberculosis H37Rv ATCC 27294", "type": "toxicity, cell-based, Vero C1008", "details": "read-out: Selectivity Index"}, "[17]": {"test": "Selectivity index, ratio of IC50 for cytotoxicity against African green monkey Vero E6 cells to MIC50 for antimycobacterial activity against Mycobacterium bovis BCG ATCC 35734", "type": "toxicity, cell-based, Vero C1008", "details": "read-out: Selectivity Index"}, "[18]": {"test_system": "Mycolicibacterium smegmatis", "test": "Disruption of proton motive force in Mycobacterium smegmatis spheroplasts assessed as disruption of proton gradient by measuring acidification of intracellular spaces within spheroplasts at 2 to 5 uM measured after 30 mins by BCECF-AM dye based fluorescence analysis", "type": "functional, organism-based", "details": "dose 2-5 µM"}}, "note": "Calls of active or inactive are those of the source. No cut-off for these calls is given here."}
{"molecule": "O=C(NC1CCCCCCC1)c1cc2ccc(Br)cc2[nH]1", "values": [{"measurement": "solubility at 24 h, 100 µM", "setting": "[1]", "result": 1.6, "unit": "µM"}, {"measurement": "Papp at 18 h, 500 µM", "setting": "[2]", "result": 8.1, "unit": "×10⁻⁶ cm/s"}]}
{"molecule": "c1ccc2[se]c(CNC3CCCCCCC3)cc2c1", "values": [{"measurement": "Activity", "setting": "[3]", "result": "inactive"}, {"measurement": "solubility at 24 h, 100 µM", "setting": "[1]", "result": 77.8, "unit": "µM"}]}
{"molecule": "c1ccc2sc(CNC3CCCCCCC3)cc2c1", "values": [{"measurement": "Ratio", "setting": "[4]", "result": 5}, {"measurement": "Ratio", "setting": "[5]", "result": 5}, {"measurement": "Activity", "setting": "[3]", "result": "inactive"}, {"measurement": "solubility at 24 h, 100 µM", "setting": "[1]", "result": 73.5, "unit": "µM"}, {"measurement": "Ratio", "setting": "[6]", "result": 5}, {"measurement": "Ratio", "setting": "[7]", "result": 5}, {"measurement": "Ratio", "setting": "[8]", "result": 5}, {"measurement": "Ratio", "setting": "[9]", "result": 5}, {"measurement": "Ratio", "setting": "[10]", "result": 5}, {"measurement": "Ratio", "setting": "[11]", "result": 5}]}
{"molecule": "Brc1ccc2cc(CNC3CCCCCCC3)[nH]c2c1", "values": [{"measurement": "solubility at 24 h, 100 µM", "setting": "[1]", "result": 35.4, "unit": "µM"}, {"measurement": "Papp at 18 h, 500 µM", "setting": "[2]", "result": 13.4, "unit": "×10⁻⁶ cm/s"}]}
{"molecule": "FC(F)(F)c1ccc2cc(CNC3CCCCCCC3)[nH]c2c1", "values": [{"measurement": "MIC50", "setting": "[12]", "result": 0.05, "unit": "µM"}, {"measurement": "MIC90", "setting": "[12]", "result": 0.13, "unit": "µM"}, {"measurement": "Ratio", "setting": "[4]", "result": 5}, {"measurement": "Ratio", "setting": "[5]", "result": 5}, {"measurement": "half-life at 200 µM", "setting": "[13]", "result": 8.2, "unit": "min"}, {"measurement": "Activity", "setting": "[3]", "result": "inactive"}, {"measurement": "solubility at 24 h, 100 µM", "setting": "[1]", "result": 31, "unit": "µM"}, {"measurement": "Ratio", "setting": "[6]", "result": 5}, {"measurement": "MBC", "setting": "[14]", "result": 0.63, "unit": "µM"}, {"measurement": "Papp at 18 h, 500 µM", "setting": "[2]", "result": 13.4, "unit": "×10⁻⁶ cm/s"}, {"measurement": "IC50 at 48 h", "setting": "[15]", "result": 22, "unit": "µM"}, {"measurement": "Ratio", "setting": "[7]", "result": 5}, {"measurement": "Ratio", "setting": "[8]", "result": 5}, {"measurement": "selectivity ratio", "setting": "[16]", "result": 366}, {"measurement": "selectivity ratio", "setting": "[17]", "result": 550}, {"measurement": "Ratio", "setting": "[9]", "result": 5}, {"measurement": "Ratio", "setting": "[10]", "result": 5}, {"measurement": "Ratio", "setting": "[11]", "result": 5}]}
{"molecule": "C[C@@H]1[C@H]2C[C@@H](C[C@H]1NC(=O)c1cc3c(F)cc(F)cc3[nH]1)C2(C)C", "values": [{"measurement": "MIC90", "setting": "[12]", "result": 0.012, "unit": "µM"}]}
{"molecule": "CC1(C)CCC(NC(=O)c2cc3c(F)cc(F)cc3[nH]2)CC1", "values": [{"measurement": "MIC50", "setting": "[12]", "result": 0.023, "unit": "µM"}]}
{"molecule": "O=C(NC1CCC2(CCCCC2)CC1)c1cc2c(F)cc(F)cc2[nH]1", "values": [{"measurement": "MIC90", "setting": "[12]", "result": 0.003, "unit": "µM"}]}
{"molecule": "O=C(NC1CCCCCCC1)c1cc2ccccc2[nH]1", "values": [{"measurement": "solubility at 24 h, 100 µM", "setting": "[1]", "result": 2.4, "unit": "µM"}]}
{"molecule": "Cc1cc(C)c2cc(C(=O)NC3CCCCCCC3)[nH]c2c1", "values": [{"measurement": "MIC90", "setting": "[12]", "result": 0.013, "unit": "µM"}, {"measurement": "solubility at 24 h, 100 µM", "setting": "[1]", "result": 5.7, "unit": "µM"}, {"measurement": "Peff", "setting": "[2]; pampa, 18 h, 500 µM", "result": "14 10^-6 cm/s"}]}
{"molecule": "N#CC(C#N)=NNc1cccc(Cl)c1", "values": [{"measurement": "Activity", "setting": "[18]", "result": "Active"}]}
{"molecule": "O=C(NC1CCCCCCC1)c1cc2ccccc2s1", "values": [{"measurement": "Activity", "setting": "[3]", "result": "inactive"}, {"measurement": "solubility at 24 h, 100 µM", "setting": "[1]", "result": 3.3, "unit": "µM"}]}
{"molecule": "CC(C)NCC(O)COc1cccc2ccccc12", "note": "(stereo not given) [PROPRANOLOL]", "values": [{"measurement": "Papp at 18 h, 500 µM", "setting": "[2]", "result": 11.9, "unit": "×10⁻⁶ cm/s"}]}
{"molecule": "O=C(NC1CCCCCCC1)c1cc2ccc(C(F)(F)F)cc2[nH]1", "values": [{"measurement": "MIC50", "setting": "[12]", "result": 0.02, "unit": "µM"}, {"measurement": "MIC90", "setting": "[12]", "result": 0.04, "unit": "µM"}, {"measurement": "Ratio", "setting": "[4]", "result": 5}, {"measurement": "Ratio", "setting": "[5]", "result": 5}, {"measurement": "half-life at 200 µM", "setting": "[13]", "result": 25.6, "unit": "min"}, {"measurement": "Activity", "setting": "[3]", "result": "inactive"}, {"measurement": "solubility at 24 h, 100 µM", "setting": "[1]", "result": 2.2, "unit": "µM"}, {"measurement": "Ratio", "setting": "[6]", "result": 5}, {"measurement": "MBC", "setting": "[14]", "result": 0.08, "unit": "µM"}, {"measurement": "Papp at 18 h, 500 µM", "setting": "[2]", "result": 0.34, "unit": "×10⁻⁶ cm/s"}, {"measurement": "IC50 at 48 h", "setting": "[15]", "result": "> 100", "unit": "µM"}, {"measurement": "Ratio", "setting": "[7]", "result": 5}, {"measurement": "Ratio", "setting": "[8]", "result": 5}, {"measurement": "selectivity ratio", "setting": "[16]", "result": "> 5000"}, {"measurement": "selectivity ratio", "setting": "[17]", "result": "> 5000"}, {"measurement": "Ratio", "setting": "[9]", "result": 5}, {"measurement": "Ratio", "setting": "[10]", "result": 5}, {"measurement": "Ratio", "setting": "[11]", "result": 5}]}
{"molecule": "Cc1c(CN2CCN(C)CC2)cc(-c2ccc(Cl)cc2)n1-c1ccc(Cl)cc1", "values": [{"measurement": "Activity", "setting": "[3]", "result": "inactive"}]}
{"molecule": "CC1(C)CCC(NC(=O)c2cc3c(Cl)cc(Cl)cc3[nH]2)CC1", "values": [{"measurement": "MIC50", "setting": "[12]", "result": 0.015, "unit": "µM"}]}
{"molecule": "c1ccc2[nH]c(CNC3CCCCCCC3)cc2c1", "values": [{"measurement": "solubility at 24 h, 100 µM", "setting": "[1]", "result": 99.7, "unit": "µM"}]}
{"molecule": "O=C(NC1C2CC3CC(C2)CC1C3)c1cc2cc(Cl)ccc2[nH]1", "note": "(stereo not given)", "values": [{"measurement": "MIC90", "setting": "[12]", "result": 0.47, "unit": "µM"}]}
{"molecule": "NNC(=O)c1ccncc1", "note": "[ISONIAZID]", "values": [{"measurement": "MIC50", "setting": "[12]", "result": 1.8, "unit": "µM"}, {"measurement": "MIC90", "setting": "[12]", "result": 3.8, "unit": "µM"}, {"measurement": "MBC", "setting": "[14]", "result": 3.2, "unit": "µM"}]}
{"molecule": "Cc1cc(C)c2cc(CNC3CCCCCCC3)[nH]c2c1", "values": [{"measurement": "MIC90", "setting": "[12]", "result": 0.31, "unit": "µM"}, {"measurement": "solubility at 24 h, 100 µM", "setting": "[1]", "result": 70.1, "unit": "µM"}, {"measurement": "Papp at 18 h, 500 µM", "setting": "[2]", "result": 18.4, "unit": "×10⁻⁶ cm/s"}]}
{"molecule": "O=C(NC1CCCCCCC1)c1cc2ccccc2[se]1", "values": [{"measurement": "Activity", "setting": "[3]", "result": "inactive"}, {"measurement": "solubility at 24 h, 100 µM", "setting": "[1]", "result": 3.7, "unit": "µM"}]}
